Test results from patent US8309552B2, “Immunomodulating heterocyclic compounds” (Medigene AG, priority 2003, dated 2012).

What follows are molecules tested against T1, CD80-CD28 interaction (Homo sapiens, UniProt P33681) (assay: Homogenous Time Resolved Fluorescence (HTRF) assay, cell free). Conditions: cell free HTRF assay; concentration series 100 μM-1.7 nM; 4 hours at room temperature; read-out: Activity (EC50 in the HTRF assay).
T1 sequence (P33681 35-242 limits assumed): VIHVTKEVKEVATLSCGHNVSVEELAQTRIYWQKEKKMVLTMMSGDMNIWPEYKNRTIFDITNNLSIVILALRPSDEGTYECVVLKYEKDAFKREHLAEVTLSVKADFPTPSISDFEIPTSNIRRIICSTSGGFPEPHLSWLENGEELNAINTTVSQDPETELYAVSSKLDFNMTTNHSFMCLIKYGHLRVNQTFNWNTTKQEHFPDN
Type: binding
How it was run: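 In pH7.8 Tris-HCl/NaCl buffer with 0.1% BSA, a 100 μM-1.7 nM compound series was incubated for 4 h at room temperature with CD28 and CD80 fusions carrying europium and APC via linker antibodies. Time-resolved signals at 665 and 615 nm were read after 340 nm excitation; a C215 Fab swap defined background. EC50 given as banded classes.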

Row | SMILES | EC50 [nM]
1 | O=C(Nc1ccc(-n2[nH]c3c(nnc4ccccc43)c2=O)cc1)NC1CCCCCC1 [Example 299] | > 10000
2 | O=C(NCCN1CCNCC1)Nc1ccc(-n2[nH]c3c(nnc4ccccc43)c2=O)cc1 [Example 300] | < 1000
3 | CC1(C)CC(NC(=O)Nc2ccc(-n3[nH]c4c(nnc5ccccc54)c3=O)cc2)CC(C)(C)N1 [Example 301] | < 1000
4 | O=C(NCCNc1ccc([N+](=O)[O-])cn1)Nc1ccc(-n2[nH]c3c(nnc4ccccc43)c2=O)cc1 [Example 302] | > 10000
5 | CCOC(=O)N1CCC(NC(=O)Nc2ccc(-n3[nH]c4c(nnc5ccccc54)c3=O)cc2)CC1 [Example 303] | > 10000
6 | CC(CCc1ccccc1)NC(=O)Nc1ccc(-n2[nH]c3c(nnc4ccccc43)c2=O)cc1 (stereo not drawn) [Example 304] | > 10000
7 | COC(CNC(=O)Nc1ccc(-n2[nH]c3c(nnc4ccccc43)c2=O)cc1)OC [Example 306] | < 1000
8 | CCOC(CNC(=O)Nc1ccc(-n2[nH]c3c(nnc4ccccc43)c2=O)cc1)OCC [Example 307] | 1000 to 10000
9 | CCC(C)CNC(=O)Nc1ccc(-n2[nH]c3c(nnc4ccccc43)c2=O)cc1 (stereo not drawn) [Example 308] | 1000 to 10000
10 | CCC(C)NC(=O)Nc1ccc(-n2[nH]c3c(nnc4ccccc43)c2=O)cc1 (stereo not drawn) [Example 309] | 1000 to 10000
11 | CCN1CCCC1CNC(=O)Nc1ccc(-n2[nH]c3c(nnc4ccccc43)c2=O)cc1 (stereo not drawn) [Example 310] | < 1000
12 | O=C(NCC(F)F)c1ccc(-n2[nH]c3c(nnc4ccccc43)c2=O)cc1 [Example 311] | < 1000
13 | O=C(NCCC(F)(F)F)c1ccc(-n2[nH]c3c(nnc4ccccc43)c2=O)cc1 [Example 312] | < 1000
14 | O=C(NC1C2CC3CC(C2)CC1C3)c1ccc(-n2[nH]c3c(nnc4ccccc43)c2=O)cc1 (stereo not drawn) [Example 313] | 1000 to 10000
15 | C#CC1(NC(=O)c2ccc(-n3[nH]c4c(nnc5ccccc54)c3=O)cc2)CCCCC1 [Example 314] | < 1000
16 | O=C(NC1CC1c1ccccc1)c1ccc(-n2[nH]c3c(nnc4ccccc43)c2=O)cc1 (stereo not drawn) [Example 315] | 1000 to 10000
17 | CC1CCCCC1NC(=O)c1ccc(-n2[nH]c3c(nnc4ccccc43)c2=O)cc1 (stereo not drawn) [Example 316] | 1000 to 10000
18 | CC1CCCC(NC(=O)c2ccc(-n3[nH]c4c(nnc5ccccc54)c3=O)cc2)C1C (stereo not drawn) [Example 317] | 1000 to 10000
19 | CC12CCC(C1)C(C)(C)C2NC(=O)c1ccc(-n2[nH]c3c(nnc4ccccc43)c2=O)cc1 (stereo not drawn) [Example 318] | < 1000
20 | CC(C)(C)NC(=O)c1ccc(-n2[nH]c3c(nnc4ccccc43)c2=O)cc1 [Example 319] | < 1000
21 | C[Si](C)(C)CNC(=O)c1ccc(-n2[nH]c3c(nnc4ccccc43)c2=O)cc1 [Example 320] | > 10000
22 | CCCC(C)NC(=O)c1ccc(-n2[nH]c3c(nnc4ccccc43)c2=O)cc1 (stereo not drawn) [Example 321] | < 1000
23 | CCCCC(C)NC(=O)c1ccc(-n2[nH]c3c(nnc4ccccc43)c2=O)cc1 (stereo not drawn) [Example 322] | < 1000
24 | O=C(NC1CCN(Cc2ccccc2)CC1)c1ccc(-n2[nH]c3c(nnc4c(F)cccc43)c2=O)cc1 [Example 323] | < 1000

Row | SMILES | EC50 [nM]
25 | CN(C)CCNC(=O)Nc1ccc(-n2[nH]c3c(nnc4c(F)cccc43)c2=O)cc1 [Example 324] | < 1000
26 | O=C(NCCCCN1CCCC1)c1ccc(-n2[nH]c3c(nnc4ccc(F)cc43)c2=O)cc1 [Example 325] | < 1000
27 | CCN(CC)CCNC(=O)c1ccc(-n2[nH]c3c(nnc4ccc(F)cc43)c2=O)cc1 [Example 326] | < 1000
28 | CN1CCCC1CCNC(=O)c1ccc(-n2[nH]c3c(nnc4ccc(F)cc43)c2=O)cc1 (stereo not drawn) [Example 327] | < 1000
29 | O=C(NC1CCN(Cc2ccccc2)CC1)c1ccc(-n2[nH]c3c(nnc4ccc(F)cc43)c2=O)cc1 [Example 328] | < 1000
30 | CCCCN(CCCC)CCCNC(=O)c1ccc(-n2[nH]c3c(nnc4ccc(F)cc43)c2=O)cc1 [Example 329] | < 1000
31 | CCN(CC)CCCNC(=O)c1ccc(-n2[nH]c3c(nnc4ccc(F)cc43)c2=O)cc1 [Example 330] | < 1000
32 | O=C(NCCCN1CCCC1)c1ccc(-n2[nH]c3c(nnc4ccc(F)cc43)c2=O)cc1 [Example 331] | < 1000
33 | CC1CCCCN1CCCNC(=O)c1ccc(-n2[nH]c3c(nnc4ccc(F)cc43)c2=O)cc1 (stereo not drawn) [Example 332] | < 1000
34 | CC=CCNC(=O)c1ccc(-n2[nH]c3c(nnc4c(F)cccc43)c2=O)cc1 [Example 333] | < 1000
35 | O=C(CN1CCC(NC(=O)c2ccc(-n3[nH]c4c(nnc5c(F)cccc54)c3=O)cc2)CC1)c1ccccc1 [Example 334] | < 1000
36 | CCOCCN1CCC(NC(=O)c2ccc(-n3[nH]c4c(nnc5c(F)cccc54)c3=O)cc2)CC1 [Example 335] | < 1000
37 | O=C(NC1CCN(CCC2CCCCC2)CC1)c1ccc(-n2[nH]c3c(nnc4c(F)cccc43)c2=O)cc1 [Example 336] | < 1000
38 | CC(c1ccccc1)N1CCC(NC(=O)c2ccc(-n3[nH]c4c(nnc5c(F)cccc54)c3=O)cc2)CC1 (stereo not drawn) [Example 337] | < 1000
39 | O=C(NCCCCN1CCOCC1)c1ccc(-n2[nH]c3c(nnc4ccccc43)c2=O)cc1 [Example 338] | < 1000
40 | O=C(NCCCCN1CCCCC1)c1ccc(-n2[nH]c3c(nnc4ccccc43)c2=O)cc1 [Example 339] | < 1000
41 | C=C(C)CNC(=O)c1ccc(-n2[nH]c3c(nnc4c(F)cccc43)c2=O)cc1 [Example 340] | < 1000
42 | CCCNCCNC(=O)c1ccc(-n2[nH]c3c(nnc4c(F)cccc43)c2=O)cc1 [Example 341] | < 1000
43 | CCN(CC)CCNC(=O)c1ccc(-n2[nH]c3c(nnc4c(F)cccc43)c2=O)cc1 [Example 342] | < 1000
44 | CN1CCCC1CCNC(=O)c1ccc(-n2[nH]c3c(nnc4c(F)cccc43)c2=O)cc1 (stereo not drawn) [Example 343] | < 1000
45 | CCCCNCCNC(=O)c1ccc(-n2[nH]c3c(nnc4c(F)cccc43)c2=O)cc1 [Example 344] | < 1000
46 | CCN(CC)CCCNC(=O)c1ccc(-n2[nH]c3c(nnc4c(F)cccc43)c2=O)cc1 [Example 346] | < 1000
47 | O=C(NCCNCc1ccccc1)c1ccc(-n2[nH]c3c(nnc4c(F)cccc43)c2=O)cc1 [Example 347] | < 1000
48 | CC(C)NCCCNC(=O)c1ccc(-n2[nH]c3c(nnc4c(F)cccc43)c2=O)cc1 [Example 348] | < 1000

Row | SMILES | EC50 [nM]
49 | NCCCCNC(=O)c1ccc(-n2[nH]c3c(nnc4c(F)cccc43)c2=O)cc1 [Example 351] | < 1000
50 | O=C(NCCCN1CCCC1)c1ccc(-n2[nH]c3c(nnc4c(F)cccc43)c2=O)cc1 [Example 352] | < 1000
51 | CCCCOCCCNC(=O)c1ccc(-n2[nH]c3c(nnc4c(F)cccc43)c2=O)cc1 [Example 354] | < 1000
52 | CNCCCNC(=O)c1ccc(-n2[nH]c3c(nnc4c(F)cccc43)c2=O)cc1 [Example 355] | < 1000
53 | CNCCNC(=O)c1ccc(-n2[nH]c3c(nnc4c(F)cccc43)c2=O)cc1 [Example 356] | < 1000
54 | CCNCCNC(=O)c1ccc(-n2[nH]c3c(nnc4c(F)cccc43)c2=O)cc1 [Example 357] | < 1000
55 | CC1CCCCN1CCCNC(=O)c1ccc(-n2[nH]c3c(nnc4c(F)cccc43)c2=O)cc1 (stereo not drawn) [Example 358] | < 1000
56 | CC(Cc1c[nH]c2ccccc12)NC(=O)c1ccc(-n2[nH]c3c(nnc4c(F)cccc43)c2=O)cc1 (stereo not drawn) [Example 359] | < 1000
57 | O=C(NCCc1ccccc1Cl)c1ccc(-n2[nH]c3c(nnc4c(F)cccc43)c2=O)cc1 [Example 360] | 1000 to 10000
58 | Cc1ccc(CCNC(=O)c2ccc(-n3[nH]c4c(nnc5c(F)cccc54)c3=O)cc2)cc1 [Example 362] | 1000 to 10000
59 | O=C(NCCc1ccc(Cl)cc1)c1ccc(-n2[nH]c3c(nnc4c(F)cccc43)c2=O)cc1 [Example 363] | 1000 to 10000
60 | O=C(NCCc1cccc(Cl)c1)c1ccc(-n2[nH]c3c(nnc4c(F)cccc43)c2=O)cc1 [Example 364] | 1000 to 10000
61 | O=C(NCCc1cccc(Br)c1)c1ccc(-n2[nH]c3c(nnc4c(F)cccc43)c2=O)cc1 [Example 365] | > 10000
62 | Cc1ccccc1CCNC(=O)c1ccc(-n2[nH]c3c(nnc4c(F)cccc43)c2=O)cc1 [Example 366] | 1000 to 10000
63 | O=C(NCCc1ccccc1Br)c1ccc(-n2[nH]c3c(nnc4c(F)cccc43)c2=O)cc1 [Example 368] | 1000 to 10000
64 | O=C(NCCc1c(F)cccc1Cl)c1ccc(-n2[nH]c3c(nnc4c(F)cccc43)c2=O)cc1 [Example 369] | 1000 to 10000
65 | O=C(NCCc1ccc(Cl)cc1Cl)c1ccc(-n2[nH]c3c(nnc4c(F)cccc43)c2=O)cc1 [Example 370] | 1000 to 10000
66 | O=C(NCCc1c(Cl)cccc1Cl)c1ccc(-n2[nH]c3c(nnc4c(F)cccc43)c2=O)cc1 [Example 371] | 1000 to 10000
67 | O=C(NCCc1ccc(Cl)c(Cl)c1)c1ccc(-n2[nH]c3c(nnc4c(F)cccc43)c2=O)cc1 [Example 372] | 1000 to 10000
68 | O=C(NCCc1cccc(F)c1)c1ccc(-n2[nH]c3c(nnc4c(F)cccc43)c2=O)cc1 [Example 373] | 1000 to 10000
69 | CC1(C)CC(NC(=O)c2ccc(-n3[nH]c4c(nnc5c(F)cccc54)c3=O)cc2)CC(C)(C)N1 [Example 374] | < 1000
70 | CC(C)(C)NC(=O)c1ccc(-n2[nH]c3c(nnc4c(F)cccc43)c2=O)cc1 [Example 375] | < 1000
71 | C=CCNC(=O)c1ccc(-n2[nH]c3c(nnc4c(F)cccc43)c2=O)cc1 [Example 377] | < 1000
72 | CC(C)(C)c1ccc(CN2CCC(NC(=O)c3ccc(-n4[nH]c5c(nnc6c(F)cccc65)c4=O)cc3)CC2)cc1 [Example 378] | < 1000
